Data: ChEMBL document CHEMBL1201862, “PubChem BioAssay data set” (2004)
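How tested: cells in 96-well plates exposed to compound for 48 hours at five concentrations. At the GI50, growth is halved.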 Activity calls are given as the source filed them. No stated cut-off is given here; in the data, active = GI50 up to about 1.1 µM and inactive = higher. Peptide text beside a SMILES is read from it. * marks the point of attachment. X27 = Clc1c(Cl)c(Cl)c(O*)c(Cl)c1Cl; Boc = CC(C)(C)OC(=O)*; OBn = c1ccc(CO*)cc1; Bn = c1ccc(C*)cc1

What was measured:
Assay in all cases: DTP human tumour cell line panel, 48 h
ACHN = tested on: ACHN
CAKI-1 = tested on: CAKI-1
CCRF-CEM = tested on: CCRF-CEM
DU-145 = tested on: DU-145
HCC 2998 = tested on: HCC 2998
HCT-116 = tested on: HCT-116
HL-60 = tested on: HL-60
MCF7 = tested on: MCF7
MDA-MB-435 = tested on: MDA-MB-435
NCI-H460 = tested on: NCI-H460
NCI-H522 = tested on: NCI-H522
OVCAR-4 = tested on: OVCAR-4
SF-268 = tested on: SF-268
SF-295 = tested on: SF-295
SK-MEL-28 = tested on: SK-MEL-28
SK-OV-3 = tested on: SK-OV-3
SW-620 = tested on: SW-620
T47D = tested on: T47D
U-251 = tested on: U-251
HOP-92 = tested on: HOP-92

Measured: GI50

C[C@@H]1CC[C@H]2[C@H](C)C(OC3O[C@@H]4O[C@@]5(C)CC[C@H]6[C@H](C)CC[C@@H]([C@@H]3C)[C@@]46O5)O[C@@H]3O[C@@]4(C)CC[C@@H]1[C@]32O4 (some centres undefined)
inactive: ACHN > 100 µM | CAKI-1 > 100 µM | CCRF-CEM > 100 µM | DU-145 > 100 µM | HCC 2998 > 100 µM | HCT-116 > 100 µM | HL-60 > 100 µM | MCF7 > 100 µM | MDA-MB-435 > 100 µM | NCI-H460 > 100 µM | NCI-H522 > 100 µM | OVCAR-4 > 100 µM | SF-268 > 100 µM | SF-295 > 100 µM | SK-MEL-28 > 100 µM | SK-OV-3 > 100 µM | SW-620 > 100 µM | T47D > 100 µM | U-251 > 100 µM

O=C(N/N=C\c1cccs1)c1ccncc1
inactive: ACHN > 100 µM | CAKI-1 > 100 µM | CCRF-CEM > 100 µM | HCC 2998 > 100 µM | HCT-116 > 100 µM | HL-60 > 100 µM | HOP-92 > 100 µM | MCF7 > 100 µM | MDA-MB-435 > 100 µM | NCI-H460 > 100 µM | NCI-H522 > 100 µM | OVCAR-4 > 100 µM | SF-268 > 100 µM | SF-295 > 100 µM | SK-MEL-28 > 100 µM | SK-OV-3 > 100 µM | SW-620 > 100 µM | T47D > 100 µM | U-251 > 100 µM

C=C(CCOC)CCC1CCCCC(CN(C)C)C1=O (centres undefined)
inactive: ACHN > 100 µM | CAKI-1 > 100 µM | CCRF-CEM > 100 µM | DU-145 > 100 µM | HCC 2998 > 100 µM | HCT-116 > 100 µM | HL-60 > 100 µM | MCF7 > 100 µM | MDA-MB-435 > 100 µM | NCI-H460 > 100 µM | NCI-H522 > 100 µM | OVCAR-4 > 100 µM | SF-268 > 100 µM | SF-295 > 100 µM | SK-MEL-28 > 100 µM | SK-OV-3 > 100 µM | SW-620 > 100 µM | T47D > 100 µM | U-251 > 100 µM

CC(C)CC(NC(=O)C(CCC(=O)OCc1ccccc1)NC(=O)OC(C)(C)C)C(=O)NC(COCc1ccccc1)C(=O)NC(Cc1ccccc1)C(=O)Oc1c(Cl)c(Cl)c(Cl)c(Cl)c1Cl (centres undefined) (Boc-E(OBn)LS(Bn)F-X27; configuration not given here)
inactive: ACHN 23.4 µM | CAKI-1 21.2 µM | CCRF-CEM 26.7 µM | DU-145 35.5 µM | HCT-116 16.6 µM | HOP-92 16.5 µM | MCF7 22.6 µM | MDA-MB-435 26.2 µM | NCI-H460 27.2 µM | NCI-H522 21.9 µM | OVCAR-4 35.6 µM | SF-268 35.3 µM | SF-295 25.5 µM | SK-MEL-28 19.2 µM | SK-OV-3 28.5 µM | SW-620 > 100 µM | U-251 18.5 µM

CC(O)(CCCCCl)c1nc2ccccc2s1 (centres undefined)
inactive: ACHN > 100 µM | CAKI-1 > 100 µM | CCRF-CEM > 100 µM | DU-145 > 100 µM | HCT-116 47 µM | HL-60 60.4 µM | MCF7 71.8 µM | MDA-MB-435 > 100 µM | NCI-H522 > 100 µM | OVCAR-4 > 100 µM | SF-268 52.8 µM | SF-295 > 100 µM | SK-MEL-28 > 100 µM | SK-OV-3 > 100 µM | SW-620 > 100 µM | T47D 29.8 µM | U-251 85.5 µM

CC1=C(/C=C/C(C)=C/C=C/C(C)=C/CO)C(C)(C)CCC1 [RETINOL]
inactive: ACHN 29.4 µM | CAKI-1 42 µM | CCRF-CEM 22.3 µM | DU-145 38.3 µM | HCC 2998 17.3 µM | HL-60 23.4 µM | MDA-MB-435 22.1 µM | NCI-H460 30.5 µM | NCI-H522 25.5 µM | OVCAR-4 37.7 µM | SF-268 28.6 µM | SF-295 24.2 µM | SK-MEL-28 25.5 µM | SK-OV-3 35.2 µM | SW-620 19.4 µM | T47D 14.5 µM | U-251 21.2 µM

CCOc1ccc(N/C(=C(/C(Cl)=C(/Cl)N(CC)CC)[N+](=O)[O-])n2nnc3ccccc32)cc1
inactive: ACHN 20 µM | CAKI-1 13.4 µM | CCRF-CEM 19.8 µM | HCC 2998 > 100 µM | HCT-116 16.7 µM | MCF7 29.9 µM | MDA-MB-435 19.5 µM | NCI-H460 56.5 µM | OVCAR-4 19.7 µM | SF-268 15.7 µM | SF-295 30.6 µM | SK-MEL-28 20 µM | SK-OV-3 56.1 µM | SW-620 14.2 µM | T47D 14.2 µM | U-251 14 µM
